Reference: patent publication US20250268860A1, “COMPOSITION FOR USE IN THE CUTANEOUS SYNTHESIS OF HYALURONIC ACID, IN AN IMMUNO-CUTANEOUS RESPONSE AND TO IMPROVE SKIN” (JR, priority 2021, published 2025)
Where two headings read alike, the source gives them in different places.

Columns and labels:
[1] = test system: hyaluronic acid synthesis; assay: Hyaluronic acid assay (ELISA) in fibroblast culture supernatant; format: cell-based, human
Protocol: At confluence, the fibroblasts were trypsinized and seeded in 6-well plates at 0.08×10^6 cells per well in DMEMc 10% FCS. After 24 hours of culturing, the medium was replaced with DMEMc 1% FCS.
After 24 hours of culturing, 2 ml of medium with or without active agent were added. The active agents were diluted to the concentrations chosen following cytotoxicity tests in DMEMc 1% FCS culture medium.
Aliquots were stored at −80° C. until assayed. The cell monolayers were washed with PBS and 500 μl of 0.1N NaOH were added. The cell lyzate was stored at −20° C. until protein assay.
The amount of hyaluronic acid in the various samples was determined by ELISA (Enzyme-Linked Immunosorbent Assay) using a TECO@kit. This kit is a sensitive sandwich assay which uses microplates coated with hyaluronic acid binding protein (HABP) and HRP-conjugated HABP binding protein for detection. The HRP-conjugated HABP binding protein binds to the hyaluronic acid contained in the sample, and then reacts with the substrate. The color intensity is proportional to the HA content of the sample.
100 μl of standard or 100 μl of sample diluted to 1:50 were added to each well. The plate was incubated for 2 hours at room temperature, with agitation. After washing the plate, 100 μl of HRBP-HRP conjugate were added to each well. The plate was incubated for 30 minutes at room temperature, with agitation. After washing the wells, 100 μl of TMB substrate were added. The plate was incubated for 30 minutes at room temperature, in the dark and with agitation. The reaction was stopped by adding 100 μl of stop solution per well. Optical density readings were immediately taken at 450 nm.
The calibration curve was plotted, representing OD as a function of hyaluronic acid concentration. A regression curve was then plotted and the amounts of hyaluronic acid contained in the samples were determined by means of the equation of this regression curve. The hyaluronic acid concentrations are expressed in ng/mg of protein.
A calibration range (0-2 mg/ml) was established using a solution of bovine serum albumin. 20 μl of each point of the calibration or sample range were placed in duplicate in the wells of a 96-well plate. 200 μl of Pierce reagent were added and the plate was incubated for 30 minutes at 37° C. The absorbance was read immediately at 550 nm (MultiSkan FC spectrophotometer, Thermo).
Significance is retained only when p<0.05.

[2] = test system: beta-defensin-2 (hBD-2); assay: hBD-2 release from keratinocytes, ELISA; format: cell-based, human; conditions: for hBD-2 % control / hBD-2 Mean / hBD-2: 72 hours; for hBD-2: single values
Protocol: More specifically, the effect of these compounds was evaluated on the release of beta-defensin-2 (hBD -2) by Enzyme-Linked Immunosorbent Assay (ELISA). Prior to this, a preliminary cytotoxicity test was performed using a standard WST-8 reduction assay to determine the concentrations to be tested.
(§1) • Cell type: Normal human epidermal keratinocytes (NHEK), used at the third passage • Culture conditions: 37° C., 5% CO2 • Culture medium: Keratinocyte-SFM optimized for the test, supplemented with Epidermal Growth Factor and pituitary extract
The keratinocytes were seeded in 96-well plates and cultured in culture medium for 24 hours. The medium was then replaced with culture medium containing or not (control) the compounds to be tested or the reference cytokine mixture (IL-17+IL-22+TNF-α at 5 ng/ml each). The cells were then incubated for 72 hours. All the experimental conditions were performed in n=3.
The inter-group comparisons were made using the unpaired bilateral Student's t-test. The statistical analyses can be interpreted if n>5; however for n<5, the calculated data are provided purely as a guide.

[3] = test system: Fibroblasts from healthy skin (FS)
Protocol: Fibroblasts from healthy skin (FS) are cultured from biopsies performed on a patient, on a skin explant derived from surgery and considered as surgical waste. The conventional explantation technique is used for fibroblast extraction. The explants are cultured in Dulbecco's modified Eagle's medium supplemented with 10% fetal calf serum (FCS), 40 mg/l gentamicin and 2 mg/l fungizone (DMEMc) at 37° C., in a humid atmosphere and in the presence of 5% CO2.
The study of cell viability in the presence of the active principles to be tested is performed by means of an MTT assay. MTT is a tetrazolium salt whose ring is transformed by mitochondrial dehydrogenases. The yellow substrate is transformed into a dark blue product by living cells, but not by dead cells or the culture medium. This colorimetric test allows the color intensity to be linked to the number of living cells. The absorbance at 550 nm is directly proportional to the number of living fibroblasts. Cytotoxicity occurs when the cell viability is less than 80% relative to the control.
The active agents in powder form were taken up in 100% DMSO so as to obtain the stock solutions. […] After 24 hours of culturing, the active principles to be tested were added. Twelve concentrations of each active principle were tested (n=10/concentration). The active agents were dissolved directly in the culture medium from the stock solutions. After 24 hours of culturing in the presence of the active agents, an MTT assay was performed.
Following the cytotoxicity results of the two active agents alone, a second cytotoxicity test was performed with the mixture. For each mixture, three concentrations were tested (n=10/concentration): • C1: highest concentration • C2: ½ dilution • C3: […]
The values are expressed as a percentage relative to the control, plus or minus the standard error of the distribution of the means (SEM). A one-factor analysis of variance is performed, followed if necessary by a Fisher test. Significance is retained only when p<0.05.

[4] = test system: Normal human epidermal keratinocytes (NHEK); assay: Preliminary test of cytotoxicity, WST-8 reduction and morphological observations; format: cell-based; conditions: 72 h
Protocol: as §1
• Cell type: NHEK in culture medium • Incubation time: 72 hours • Evaluation parameters: WST-8 reduction and morphological microscopic observations.
At the end of the treatment, the cells were incubated in the presence of WST-8 (a highly water-soluble tetrazolium salt), reduced to a water-soluble, orange-colored product (formazan) by succinate dehydrogenase (a mitochondrial enzyme). This transformation is proportional to the number of living cells and their metabolic activity. The optical density (OD) was measured with a spectrophotometer at 450 nm (VERSAmax, Molecular Devices).
Percentage viability: viability (%)=(OD compound/OD control)×100

## O=C(/C=C/c1ccc(O)c(O)c1)O[C@@H]1C[C@](O)(C(=O)O)C[C@@H](O)[C@H]1O [GPCB07, chlorogenic acid]
[1]; 100 μM, FIG. 4
  improvement of hyaluronic acid (HA) content of skin cells reported in Ref. 18: could not be reproduced
[1]; tested alone, 100 μM, 48 hours, relative to control
  decrease of hyaluronic acid synthesis: about 20%
[2]
  effect on beta-defensin-2 release from human epidermal keratinocytes: no effect
[2]; 0.0033%
  hBD-2 % control: <73 % control
  hBD-2 Mean: <8 pg/mL
  hBD-2: <8 pg/mL
[2]; 0.01%
  hBD-2 % control: <73 % control
  hBD-2 Mean: <8 pg/mL
  hBD-2: <8 pg/mL
[2]; 0.03%
  hBD-2 % control: <73 % control
  hBD-2 Mean: <8 pg/mL
  hBD-2: <8 pg/mL
[3]; female, human, 24 h
  maximum non-cytotoxic concentration retained: 100 µM
[3]; female, human, 24 h, 0.5 μM
  Viability (%/Ctrl): 95.14 %/Ctrl
[3]; female, human, 24 h, 1 μM
  Viability (%/Ctrl): 94.89 %/Ctrl
[3]; female, human, 24 h, 5 μM
  Viability (%/Ctrl): 101.75 %/Ctrl
[3]; female, human, 24 h, 10 μM
  Viability (%/Ctrl): 89.63 %/Ctrl
[3]; female, human, 24 h, 25 μM
  Viability (%/Ctrl): 100.28 %/Ctrl
[3]; female, human, 24 h, 50 μM
  Viability (%/Ctrl): 99.64 %/Ctrl
[3]; female, human, 24 h, 75 μM
  Viability (%/Ctrl): 103.28 %/Ctrl
[3]; female, human, 24 h, 100 μM
  Viability (%/Ctrl): 100.41 %/Ctrl

## O=C(O)[C@H]1O[C@@H](Oc2cc3oc(-c4ccccc4)cc(=O)c3c(O)c2O)[C@H](O)[C@@H](O)[C@@H]1O [GPCB09, baicalin]
[1]; 25 μM, FIG. 4
  effect on HA content relative to a control test: improve HA content
[1]; tested alone, 25 μM, 48 hours, relative to control
  increase of hyaluronic acid synthesis: about 30%
[2]
  effect on beta-defensin-2 release from human epidermal keratinocytes: no effect
[2]; 0.0001%
  hBD-2 % control: <73 % control
  hBD-2 Mean: <8 pg/mL
  hBD-2: <8 pg/mL
[2]; 0.0003%
  hBD-2 % control: <73 % control
  hBD-2 Mean: <8 pg/mL
  hBD-2: <8 pg/mL
[2]; 0.001%
  hBD-2 % control: <73 % control
  hBD-2 Mean: <8 pg/mL
  hBD-2: <8 pg/mL
[4]; 0.0004 mg/mL
  Viability Mean (%): 99%
[4]; 0.0012 mg/mL
  Viability Mean (%): 96%
[4]; 0.0037 mg/mL
  Viability Mean (%): 87%
[4]; 0.011 mg/mL
  Viability Mean (%): 66%
[4]; 0.033 mg/mL
  Viability Mean (%): 35%
[4]; 0.098 mg/mL
  Viability Mean (%): 21%
[4]; 0.287 mg/mL
  Viability Mean (%): 19%
[4]; 0.38 mg/mL
  Viability Mean (%): 1%
[3]; 0.5 μM, 24 hours
  Viability (%/Ctrl): 99.82 %/Ctrl
[3]; 1.0 μM, 24 hours
  Viability (%/Ctrl): 98.27 %/Ctrl
[3]; 5.0 μM, 24 hours
  Viability (%/Ctrl): 101.92 %/Ctrl
[3]; 10.0 μM, 24 hours
  Viability (%/Ctrl): 100.76 %/Ctrl
[3]; 50.0 μM, 24 hours
  Viability (%/Ctrl): 86.65 %/Ctrl
[3]; 100.00 μM, 24 hours
  Viability (%/Ctrl): 21.80 %/Ctrl
[3]; 75 and 100 μM
  decrease in cell viability relative to the control: very significant
[3]; 24 hours, MTT
  concentration causing a significant reduction in cell viability relative to the control: ≥ 50 µM
[3]; active agent alone
  maximum non-cytotoxic concentration retained: 25 µM
